Measurements from patent publication EP1738740A2, “Use of benzyl-1,3-thiazolidine-2,4-dione compounds for favouring and/or inducing and/or stimulating the pigmentation of keratinic materials and/or for limiting their depigmentation and/or their bleaching” (L'Oreal, priority 2005, dated 2007).

Molecular target: T1, 15-PGDH de type 1 (Homo sapiens, UniProt P15428)
T1 sequence (P15428 1-266): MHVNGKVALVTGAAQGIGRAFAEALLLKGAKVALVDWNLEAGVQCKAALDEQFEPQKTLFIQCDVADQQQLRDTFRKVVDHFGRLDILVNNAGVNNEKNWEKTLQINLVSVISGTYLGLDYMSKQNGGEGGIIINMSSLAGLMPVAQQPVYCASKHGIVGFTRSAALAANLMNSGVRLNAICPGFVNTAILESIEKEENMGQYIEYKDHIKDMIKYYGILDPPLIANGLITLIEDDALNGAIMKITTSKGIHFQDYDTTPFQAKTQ
Assay: Test on 15-PGDH type 1: spectrophotometric enzyme inhibition, NADH formation at 340 nm with PGE2 and β-NAD
Type: biochemical
Conditions: concentration reducing the enzymatic activity of 15-PGDH by 50%; Tris 100 mM pH 7,4, 37°C, 50 µM Prostaglandine E2, 1,5 mM β-NAD
Experimental: L'enzyme 15-PGDH est obtenue comme décrit dans la demande FR 02/05067 déposée au nom de L'Oréal, en suspension dans un milieu adapté à une concentration de 0,3 mg/mL puis bloquée à - 80°C. Pour les besoins du test, cette suspension est décongelée et stockée dans de la glace.
Par ailleurs on prépare un tampon Tris 100 mM, pH = 7,4, contenant 0,1 mM de dithiothréitol (D5545, Sigma-Aldrich, L'isle D'Abeau Chesne, BP 701, 38297, Saint Quentin Fallavier), 1,5 mM de β-NAD (N6522, Sigma-Aldrich, L'isle D'Abeau Chesne, BP 701, 38297, Saint Quentin Fallavier), 50 µM de Prostaglandine E2 (P4172, Sigma-Aldrich, L'isle D'Abeau Chesne, BP 701, 38297, Saint Quentin Fallavier).
Dans la cuve d'un spectrophotomètre (Perkin-Elmer, Lambda 2) thermostaté à 37°C, dont la longueur d'onde de mesure est réglée à 340 nm, sont introduits 0,965 ml de ce tampon (préalablement porté à 37°C). 0,035 mL de suspension enzymatique à 37°C sont introduits dans la cuve concomitamment à l'enregistrement (correspondant à une augmentation de la densité optique à 340 nm). La vitesse maximale de réaction est relevée. […]

IC50: 2200 nM
Compound: O=C1NC(=O)C(Cc2ccccc2Oc2ccc(Cl)cc2)S1 (stereo not shown) [compound 1]
